EPA's ToxRefDB 2

Legend:
rat [1] = details: Sub-acute repeat dose toxicity, Oral, Gavage/Intubation, dose end: 14 day, group: systemic
primate [2] = details: Sub-acute repeat dose toxicity, Oral, Gavage/Intubation, dose end: 15 day, group: systemic
primate [3] = details: Sub-acute repeat dose toxicity; Oral; Gavage/Intubation; dose end: 5 day; group: systemic; systemic / clinical chemistry / alanine aminotransferase (alt/sgpt) / alanine aminotransferase (alt/sgpt) + systemic / clinical chemistry / …
primate [4] = details: Sub-acute repeat dose toxicity; Oral; Gavage/Intubation; dose end: 8 day; group: systemic; systemic / hematology / neutrophils / neutrophils + systemic / in life observation / body weight / body weight + systemic / in life …
rabbit = details: Sub-acute repeat dose toxicity, Oral, Gavage/Intubation, dose end: 5 day, group: systemic
primate [5] = details: Sub-acute repeat dose toxicity; Oral; Gavage/Intubation; dose end: 35 day; group: systemic; systemic / in life observation / clinical signs / emesis
rat [6] = details: Sub-acute repeat dose toxicity, sprague dawley, Oral, Gavage/Intubation, dose end: 28 day, group: systemic
dog [7] = details: Sub-acute repeat dose toxicity; beagle; Oral; Gavage/Intubation; dose end: 5 day; group: systemic; systemic / in life observation / clinical signs / emesis
dog [8] = details: Chronic toxicity, beagle, Oral, Feed, dose end: 52 week, group: systemic
dog [9] = details: Subchronic oral toxicity in nonrodent, beagle, Feed, dose end: 90 day, group: systemic
rat [10] = details: Subchronic oral toxicity in rodents, sprague dawley, Feed, dose end: 90 day, group: systemic
rat [11] = details: Multigenerational reproductive toxicity study, other, Oral, Feed, dose end: 2 generation
mouse [12] = details: Subchronic oral toxicity in rodents, cd1, Feed, dose end: 90 day, group: systemic
mouse [13] = details: Carcinogenicity, cd1, Oral, Feed, dose end: 18 month, group: systemic
rat [14] = details: Prenatal developmental toxicity study, other, Oral, Gavage/Intubation, dose end: 16 GD
rat [15] = details: Sub-acute repeat dose toxicity, Oral, Gavage/Intubation, dose end: 7 day, group: systemic
primate [16] = details: Sub-acute repeat dose toxicity; Oral; Gavage/Intubation; dose end: 14 day; group: systemic; systemic / clinical chemistry / [other] / [other] + systemic / clinical chemistry / testosterone / testosterone + systemic / hematology / …
rat [17] = details: Sub-acute repeat dose toxicity; Oral; Gavage/Intubation; dose end: 14 day; group: systemic; systemic / clinical chemistry / protein / protein + systemic / hematology / erythrocyte (rbc) count differential / erythrocyte (rbc) + …
primate [18] = details: Sub-acute repeat dose toxicity; Oral; Gavage/Intubation; dose end: 7 day; group: systemic; systemic / in life observation / clinical signs / abnormal feces + systemic / hematology / erythrocyte (rbc) count differential / …
primate [19] = details: Subchronic oral toxicity in nonrodent, Gavage/Intubation, dose end: 42 day, group: systemic, systemic / clinical chemistry / [other] / [other] + systemic / clinical chemistry / cytochrome p450, nos / cytochrome p450, nos + systemic…
[20] = systemic / in life observation / clinical signs / nasal discharge + systemic / in life observation / clinical signs / salivation
[21] = systemic / pathology gross / intestine large / dilatation + systemic / pathology gross / intestine small / dilatation + systemic / pathology…
[22] = systemic / clinical chemistry / alanine aminotransferase (alt/sgpt) / alanine aminotransferase (alt/sgpt) + systemic / clinical chemistry / …
[23] = systemic / in life observation / body weight / body weight + systemic / in life observation / clinical signs / abnormal feces + systemic / …
[24] = systemic / in life observation / clinical signs / [other] + systemic / in life observation / clinical signs / abnormal feces + systemic / in…
[25] = systemic / in life observation / clinical signs / abnormal feces + systemic / in life observation / clinical signs / general pallor + …
[26] = systemic / hematology / fibrinogen / fibrinogen + systemic / hematology / leukocyte (wbc) count differential / leukocyte (wbc) + systemic / …
[27] = systemic / pathology microscopic / blood / vasculitis + systemic / pathology microscopic / kidney / degeneration + systemic / pathology …
[28] = systemic / clinical chemistry / alanine aminotransferase (alt/sgpt) / alanine aminotransferase (alt/sgpt) + systemic / pathology microscopic…
[29] = systemic / pathology microscopic / liver / pigmentation
[30] = systemic / hematology / erythrocyte (rbc) count differential / erythrocyte (rbc) + systemic / hematology / hematocrit (hct) / hematocrit (…
[31] = group: offspring, developmental / offspring survival late / lactation index / lactation index + developmental / offspring survival late / viability index / …
[32] = group: parental, systemic / hematology / methemoglobin / methemoglobin
[33] = group: reproductive, reproductive / reproductive performance / gestational length / gestational length + reproductive / reproductive performance / implantations…
[34] = systemic / hematology / hemoglobin (hgb) / hemoglobin (hgb) + systemic / in life observation / body weight / body weight gain + systemic / …
[35] = group: developmental, developmental / developmental malformation / bone / malformation, total + developmental / developmental malformation / bone / misshapen + …
[36] = group: maternal, reproductive / reproductive performance / resorptions / resorptions + reproductive / reproductive performance / estrous cycle / corpora …
[37] = systemic / clinical chemistry / protein / protein + systemic / hematology / neutrophils / neutrophils + systemic / in life observation / …
[38] = systemic / in life observation / food consumption / food consumption + systemic / clinical chemistry / cytochrome p450, nos / cytochrome …

In the case of CC(C)(O)c1ccc(CNC(=O)c2cccnc2Oc2ccc(F)cc2)cc1, the LEL (rat [1]; [20]) is reported as 3 mg/kg/day, the NEL (rat [1]; [20]) is reported as under 3 mg/kg/day and the LOAEL (rat [1]; [21]) is reported as over 30 mg/kg/day. The NOAEL (rat [1]; [21]) was at least 30 mg/kg/day, the LOAEL (primate [2]; [22]) was over 20 mg/kg/day and the NOAEL (primate [2]; [22]) was at least 20 mg/kg/day. The LEL (primate [2]; [23]) was 3 mg/kg/day, the NEL (primate [2]; [23]) was under 3 mg/kg/day and the LEL (primate [3]) was 20 mg/kg/day. For the same molecule, the LOAEL (primate [3]) was over 20 mg/kg/day, the NEL (primate [3]) was under 20 mg/kg/day and the NOAEL (primate [3]) was at least 20 mg/kg/day. For the same molecule, the LEL (primate [4]) was 1 mg/kg/day, the LOAEL (primate [4]) was over 1 mg/kg/day and the NEL (primate [4]) was under 1 mg/kg/day. It also gave an NOAEL (primate [4]) of at least 1 mg/kg/day, an LOAEL (rabbit; [24]) of over 20 mg/kg/day and an NOAEL (rabbit; [24]) of at least 20 mg/kg/day. It also gave an LEL (rabbit; [25]) of 1 mg/kg/day, an NEL (rabbit; [25]) of under 1 mg/kg/day and an LEL (primate [5]) of 1 mg/kg/day. For the same molecule, the LOAEL (primate [5]) was over 1 mg/kg/day, the NEL (primate [5]) was under 1 mg/kg/day and the NOAEL (primate [5]) was at least 1 mg/kg/day. For the same molecule, the LOAEL (rat [6]; [26]) was over 20 mg/kg/day, the NOAEL (rat [6]; [26]) was at least 20 mg/kg/day and the LEL (rat [6]; [27]) was 1 mg/kg/day. It also gave an NEL (rat [6]; [27]) of under 1 mg/kg/day, an LEL (dog [7]) of 10 mg/kg/day and an LOAEL (dog [7]) of over 10 mg/kg/day. For the same molecule, the NEL (dog [7]) was under 10 mg/kg/day and the NOAEL (dog [7]) was at least 10 mg/kg/day.
C#CCOc1cc(-n2nc3n(c2=O)CCCC3)c(Cl)cc1Cl [Azafenidin] was tested, and the LOAEL (dog [8]; [28]) was 0.86 mg/kg/day, the NOAEL (dog [8]; [28]) was 0.3 mg/kg/day and the LEL (dog [8]; systemic / pathology microscopic / liver / cytoplasmic alteration) was 0.3 mg/kg/day. For the same molecule, the NEL (dog [8]; systemic / pathology microscopic / liver / cytoplasmic alteration + systemic / clinical chemistry / alanine aminotransferase (alt/sgpt) / …) was 0.16 mg/kg/day, the LOAEL (dog [9]; systemic / pathology microscopic / liver / hypertrophy + systemic / pathology microscopic / liver / pigmentation) was 2.02 mg/kg/day and the NOAEL (dog [9]; systemic / pathology microscopic / liver / hypertrophy + systemic / pathology microscopic / liver / pigmentation + systemic / clinical …) was 0.34 mg/kg/day. It also gave an LEL (dog [9]; [29]) of 0.34 mg/kg/day, an NEL (dog [9]; [29]) of under 0.34 mg/kg/day and an LOAEL (rat [10]; [30]) of 71.9 mg/kg/day. The NEL (rat [10]; [30]) was 4.02 mg/kg/day, the NOAEL (rat [10]; [30]) was 24.2 mg/kg/day and the LEL (rat [10]; systemic / organ weight / kidney / relative to body weight) was 24.2 mg/kg/day. For the same molecule, the LEL (rat [11]; [31]) was 14.5 mg/kg/day, the LOAEL (rat [11]; [31]) was 14.5 mg/kg/day and the NEL (rat [11]; [31]) was 2.33 mg/kg/day. It also gave an NOAEL (rat [11]; [31]) of 2.33 mg/kg/day, an LEL (rat [11]; [32]) of 0.389 mg/kg/day and an NEL (rat [11]; [32]) of under 0.389 mg/kg/day. For the same molecule, the LOAEL (rat [11]; group: parental, systemic / in life observation / food consumption / food consumption + systemic / in life observation / mortality / mortality) was 78.6 mg/kg/day, the NOAEL (rat [11]; group: parental, systemic / in life observation / food consumption / food consumption + systemic / in life observation / mortality / mortality + systemic / …) was 14.4 mg/kg/day and the LEL (rat [11]; [33]) was 14.4 mg/kg/day. The LOAEL (rat [11]; [33]) was 14.4 mg/kg/day, the NEL (rat [11]; [33]) was 2.31 mg/kg/day and the NOAEL (rat [11]; [33]) was 2.31 mg/kg/day. It also gave an LOAEL (mouse [12]; [34]) of 144 mg/kg/day, an NEL (mouse [12]; [34]) of 7.94 mg/kg/day and an NOAEL (mouse [12]; [34]) of 47.2 mg/kg/day. For the same molecule, the LEL (mouse [12]; [29]) was 47.2 mg/kg/day, the NEL (mouse [13]; systemic / pathology gross / full gross necropsy / proliferation) was 4 mg/kg/day and the LOAEL (mouse [13]; systemic / pathology microscopic / liver / adenoma + systemic / pathology microscopic / liver / pigmentation) was 39.8 mg/kg/day. For the same molecule, the NOAEL (mouse [13]; systemic / pathology microscopic / liver / adenoma + systemic / pathology microscopic / liver / pigmentation + systemic / hematology / mean …) was 4 mg/kg/day, the LEL (mouse [13]; systemic / pathology microscopic / liver / adenoma + systemic / pathology microscopic / liver / pigmentation + systemic / pathology gross / …) was 39.8 mg/kg/day and the LEL (rat [14]; [35]) was 24 mg/kg/day. It also gave an LOAEL (rat [14]; [35]) of 24 mg/kg/day, an NEL (rat [14]; [35]) of 16 mg/kg/day and an NOAEL (rat [14]; [35]) of 16 mg/kg/day. It also gave an LEL (rat [14]; group: maternal, reproductive / reproductive performance / estrous cycle / corpora lutea) of 16 mg/kg/day, an LOAEL (rat [14]; group: maternal, reproductive / reproductive performance / resorptions / resorptions) of 24 mg/kg/day and an NEL (rat [14]; [36]) of 8 mg/kg/day. For the same molecule, the NOAEL (rat [14]; [36]) was 16 mg/kg/day.
Cc1oc(-c2ccccc2)nc1CCOc1cccc2c1ccn2CCC(=O)O gave an LOAEL (rat [15]; [37]) of over 2000 mg/kg/day, an NOAEL (rat [15]; [37]) of at least 2000 mg/kg/day and an LEL (rat [15]; [38]) of 100 mg/kg/day. The NEL (rat [15]; [38]) was under 100 mg/kg/day, the LEL (primate [16]) was 100 mg/kg/day and the LOAEL (primate [16]) was over 2000 mg/kg/day. For the same molecule, the NEL (primate [16]) was under 100 mg/kg/day, the NOAEL (primate [16]) was at least 2000 mg/kg/day and the LEL (rat [17]) was 10 mg/kg/day. For the same molecule, the LOAEL (rat [17]) was over 1000 mg/kg/day, the NEL (rat [17]) was under 10 mg/kg/day and the NOAEL (rat [17]) was at least 1000 mg/kg/day. The LEL (primate [18]) was 100 mg/kg/day, the LOAEL (primate [18]) was over 2000 mg/kg/day and the NEL (primate [18]) was under 100 mg/kg/day. For the same molecule, the NOAEL (primate [18]) was at least 2000 mg/kg/day, the LEL (primate [19]) was 100 mg/kg/day and the LOAEL (primate [19]) was over 100 mg/kg/day. For the same molecule, the NEL (primate [19]) was under 100 mg/kg/day and the NOAEL (primate [19]) was at least 100 mg/kg/day.
